Data published in patent US12178822B2, “Methods of treating hematological malignancies using 2-(2,6-dioxopiperidin-3-yl)-4-((2-fluoro-4-((3-morpholinoazetidin-1-yl)methyl)benzyl)amino)isoindoline-1,3-dion” (Celgene Corporation, priority 2019, dated 2024).

Columns and labels:
Format in all cases: cell-based
[1] = tested on: Karpas-299; experiment: Cell proliferation and viability / apoptosis flow cytometry assay, Karpas-299; conditions: Karpas-299 (TCL); 120 hours
Procedure: (§1) The following are examples of cell-based assays that can be used to determine the anti-proliferative activity and apoptotic effect of compounds described herein using exemplary hematological cell lines (Table 1). The in vitro growth inhibitory activity of Compound 1 described herein was evaluated using a 384-well flow cytometry assay.
(§2) The cell lines were plated under the conditions shown in Table 1 in 384-well flat bottom plates and incubated with increasing concentrations of compound ranging from 0.00015 to 10 μM or dimethyl sulfoxide (DMSO) control. The final concentration of DMSO was 0.1% (v/v). Following the addition of Compound 1 or DMSO and incubation for 120 hours, cell number and cell death were analyzed by flow cytometry (Attune®, Thermo Fisher) using Annexin V and the live-cell impermeant DNA dye, DRAQ7. […]
(§3) Flow cytometry data analysis was then performed using the Flow Jo_v10 software to determine the number of viable cells (Annexin V and DRAQ7 double negative staining cells) and percentage of apoptotic cells (Annexin V positive cells) for each condition. […] The IC50 (50% inhibitory concentration) and Emax (maximum efficacy achieved) values were then calculated by performing nonlinear regression curve fitting using log(inhibitor) vs. normalized response—variable slope analysis on GraphPad Prism 7.03. […]

[2] = tested on: BL-41; experiment: Cell proliferation and viability / apoptosis flow cytometry assay, BL-41; conditions: 120 hours
Procedure: as §1, §2, §3

[3] = tested on: L-363; experiment: Cell proliferation and viability / apoptosis flow cytometry assay, L-363; conditions: L-363 (MM, PCL); 120 hours
Procedure: as §1, §2, §3

[4] = tested on: Karpas-231; experiment: Cell proliferation and viability / apoptosis flow cytometry assay, Karpas-231; conditions: Karpas-231 (ALL); 120 hours
Procedure: as §1, §2, §3

[5] = tested on: Daudi; experiment: Cell proliferation and viability / apoptosis flow cytometry assay, Daudi; conditions: Daudi (BL); 120 hours
Procedure: as §1, §2, §3

[6] = tested on: MDS-L; experiment: Cell proliferation and viability / apoptosis flow cytometry assay, MDS-L; conditions: 120 hours
Procedure: as §1, §2, §3

[7] = tested on: HNT-34; experiment: Cell proliferation and viability / apoptosis flow cytometry assay, HNT-34; conditions: HNT-34 (AML); 120 hours
Procedure: as §1, §2, §3

[8] = tested on: SVSL/VL51; experiment: Cell proliferation and viability / apoptosis flow cytometry assay, SVSL; conditions: SVSL (MZL, SMZL); 120 hours
Procedure: as §1, §2, §3

[9] = tested on: HuT-102; experiment: Cell proliferation and viability / apoptosis flow cytometry assay, HuT-102; conditions: HuT-102 (TCL); 120 hours
Procedure: as §1, §2, §3

[10] = tested on: SK-MM-1; experiment: Cell proliferation and viability / apoptosis flow cytometry assay, SK-MM-1; conditions: SK-MM-1 (MM, PCL); 120 hours
Procedure: as §1, §2, §3

[11] = tested on: JJN-3; experiment: Cell proliferation and viability / apoptosis flow cytometry assay, JJN-3; conditions: JJN-3 (MM, PCL); 120 hours
Procedure: as §1, §2, §3

[12] = tested on: OPM-2; experiment: Cell proliferation and viability / apoptosis flow cytometry assay, OPM-2; conditions: OPM-2 (MM); 120 hours
Procedure: as §1, §2, §3

[13] = tested on: NCI-H929; experiment: Cell proliferation and viability / apoptosis flow cytometry assay, NCI-H929; conditions: NCI-H929 (MM); 120 hours
Procedure: as §1, §2, §3

[14] = tested on: L-591; experiment: Cell proliferation and viability / apoptosis flow cytometry assay, L-591; conditions: L-591 (HL); 120 hours
Procedure: as §1, §2, §3

[15] = tested on: KOPN-8; experiment: Cell proliferation and viability / apoptosis flow cytometry assay, KOPN-8; conditions: KOPN-8 (ALL); 120 hours
Procedure: as §1, §2, §3

[16] = tested on: L-428; experiment: Cell proliferation and viability / apoptosis flow cytometry assay, L-428; conditions: L-428 (HL); 120 hours
Procedure: as §1, §2, §3

O=C1CC[C@H](N2C(=O)c3cccc(NCc4ccc(CN5CC(N6CCOCC6)C5)cc4F)c3C2=O)C(=O)N1 [Compound 1, (S)-2-(2,6-dioxopiperidin-3-yl)-4-((2-fluoro-4-((3-morpholinoazetidin-1-yl)methyl)benzyl)amino)isoindoline-1,3-dione]
% Viable Cells Emax (percentage of tumor cells remaining) [1]: 8.43% | % Viable Cells Emax (percentage of tumor cells remaining) [2]: 96.65% | % Viable Cells Emax (percentage of tumor cells remaining) [3]: 27.6% | % Viable Cells Emax (percentage of tumor cells remaining) [4]: 0% | % Viable Cells Emax (percentage of tumor cells remaining) [5]: 0% | % Viable Cells Emax (percentage of tumor cells remaining) [6]: 146.7% | % Viable Cells Emax (percentage of tumor cells remaining) [7]: 20.47% | % Viable Cells Emax (percentage of tumor cells remaining) [8]: 34.07% | % Viable Cells Emax (percentage of tumor cells remaining) [9]: 36.34% | % Viable Cells Emax (percentage of tumor cells remaining) [10]: 3% | % Viable Cells Emax (percentage of tumor cells remaining) [11]: 21.6% | % Viable Cells Emax (percentage of tumor cells remaining) [12]: 6.65% | % Viable Cells Emax (percentage of tumor cells remaining) [13]: 6.1% | % Viable Cells Emax (percentage of tumor cells remaining) [14]: 34.6% | % Viable Cells Emax (percentage of tumor cells remaining) [15]: 38.3% | % Viable Cells Emax (percentage of tumor cells remaining) [16]: 47.3%
